Experimental data taken from US20100022531A1, “NOVEL COMPOUNDS AS P2X7 MODULATORS AND USES THEREOF” (RENOVIS, INC., priority 2005, published 2010).

Target: T1, P2X7 receptor (Homo sapiens, UniProt Q99572)
T1 construct: host or cells: THP-1 cells differentiated with LPS and IFN-γ
T1 sequence (Q99572 1-595): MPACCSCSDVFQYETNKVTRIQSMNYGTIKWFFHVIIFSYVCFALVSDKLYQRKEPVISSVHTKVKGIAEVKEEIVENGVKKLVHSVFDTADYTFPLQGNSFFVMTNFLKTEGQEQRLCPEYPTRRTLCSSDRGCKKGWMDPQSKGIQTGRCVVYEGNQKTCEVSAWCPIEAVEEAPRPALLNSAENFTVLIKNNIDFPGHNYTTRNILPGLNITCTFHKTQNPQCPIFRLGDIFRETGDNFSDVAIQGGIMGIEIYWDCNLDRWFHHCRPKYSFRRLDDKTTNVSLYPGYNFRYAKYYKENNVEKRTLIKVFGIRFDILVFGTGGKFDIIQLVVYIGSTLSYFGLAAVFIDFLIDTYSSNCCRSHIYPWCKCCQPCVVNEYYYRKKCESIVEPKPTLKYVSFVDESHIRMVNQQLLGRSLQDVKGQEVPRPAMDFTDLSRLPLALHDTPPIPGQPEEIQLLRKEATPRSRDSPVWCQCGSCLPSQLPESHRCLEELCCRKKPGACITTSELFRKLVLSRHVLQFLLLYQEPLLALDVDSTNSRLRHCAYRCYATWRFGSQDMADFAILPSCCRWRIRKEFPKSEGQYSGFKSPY
Experiment: Alternate method for IL-1β release assay (differentiated THP-1 cells, BzATP-stimulated, ELISA)
Format: cell-based
Conditions: P2X7; 0.1 μM compound (symbols + to ++++); read-out: IL-1β % inhib @ 0.1 μM
Method in brief: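 After 16 h differentiation with 100 ng/mL LPS and 100 ng/mL IFN-γ plus a further 2 h LPS priming, THP-1 cells were pretreated 30 min with compound, then stimulated with 250 uM BzATP (final) for 45 min. Supernatant IL-1β measured by ELISA; percent inhibition from background-adjusted levels versus untreated cells.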

inhibition at 0.1 µM	SMILES
> 75%	O=C(COc1cccc(Cl)c1)N1CCc2c(ncnc2NCC23CC4CC(CC(C4)C2)C3)C1 [Compound 248, 1-{4-[(Adamantan-1-ylmethyl)-amino]-5,8-dihydro-6H-pyrido[3,4-d]pyrimidin-7-yl}-2-(3-chloro-phenoxy)-ethanone]

Same assay, conditions: P2X7; 0.3 μM compound (symbols * to ****); read-out: IL-1β % inhib @ 0.3 μM

inhibition at 0.3 µM	SMILES
> 75%	Fc1ccc(CN2CCc3c(ncnc3NCC34CC5CC(CC(C5)C3)C4)C2)c(F)c1 [Compound 220]
> 75%	c1cc(CN2CCc3c(ncnc3NCC34CC5CC(CC(C5)C3)C4)C2)ccn1 [Compound 221]
> 75%	Fc1cc(CN2CCc3c(ncnc3NCC34CC5CC(CC(C5)C3)C4)C2)ccc1Cl [Compound 222]
> 75%	Fc1cc(C(F)(F)F)ccc1CN1CCc2c(ncnc2NCC23CC4CC(CC(C4)C2)C3)C1 [Compound 223]
0 to 25%	Brc1ccc(CN2CCc3c(ncnc3NCC34CC5CC(CC(C5)C3)C4)C2)cn1 [Compound 224]
> 75%	Brc1cccc(CN2CCc3c(ncnc3NCC34CC5CC(CC(C5)C3)C4)C2)c1 [Compound 225]
> 75%	COc1ccccc1CN1CCc2c(ncnc2NCC23CC4CC(CC(C4)C2)C3)C1 [Compound 226]
0 to 25%	CC(=O)Nc1ccc(CN2CCc3c(ncnc3NCC34CC5CC(CC(C5)C3)C4)C2)cc1 [Compound 227]
0 to 25%	Brc1ccccc1CN1CCc2c(ncnc2NCC23CC4CC(CC(C4)C2)C3)C1 [Compound 228]
0 to 25%	Fc1ccc(Br)cc1CN1CCc2c(ncnc2NCC23CC4CC(CC(C4)C2)C3)C1 [Compound 229]
> 75%	c1nc2c(c(NCC34CC5CC(CC(C5)C3)C4)n1)CCN(CC1CCCC1)C2 [Compound 230]
0 to 25%	FC(F)(F)Oc1ccc(CN2CCc3c(ncnc3NCC34CC5CC(CC(C5)C3)C4)C2)cc1 [Compound 231]
0 to 25%	FC(F)Oc1ccc(CN2CCc3c(ncnc3NCC34CC5CC(CC(C5)C3)C4)C2)cc1 [Compound 232]
0 to 25%	Fc1ccc(COc2ccc(CN3CCc4c(ncnc4NCC45CC6CC(CC(C6)C4)C5)C3)cc2)cc1 [Compound 233]
0 to 25%	COc1cc(F)c(CN2CCc3c(ncnc3NCC34CC5CC(CC(C5)C3)C4)C2)cc1OC [Compound 234]
0 to 25%	COc1cc(F)c(CN2CCc3c(ncnc3NCC34CC5CC(CC(C5)C3)C4)C2)c(F)c1 [Compound 235]
50 to 75%	CCOc1cccc(CN2CCc3c(ncnc3NCC34CC5CC(CC(C5)C3)C4)C2)c1 [Compound 236]
0 to 25%	FC1(F)Oc2ccc(CN3CCc4c(ncnc4NCC45CC6CC(CC(C6)C4)C5)C3)cc2O1 [Compound 238]
0 to 25%	COc1ccc(F)c(CN2CCc3c(ncnc3NCC34CC5CC(CC(C5)C3)C4)C2)c1 [Compound 239]
> 75%	COc1cc(CN2CCc3c(ncnc3NCC34CC5CC(CC(C5)C3)C4)C2)ccc1F [Compound 240]
> 75%	CCOc1ccc(CN2CCc3c(ncnc3NCC34CC5CC(CC(C5)C3)C4)C2)cc1 [Compound 241]
> 75%	COc1ccc(OC)c(CN2CCc3c(ncnc3NCC34CC5CC(CC(C5)C3)C4)C2)c1 [Compound 242]
> 75%	FC(F)(F)Oc1cccc(CN2CCc3c(ncnc3NCC34CC5CC(CC(C5)C3)C4)C2)c1 [Compound 243]
> 75%	COc1cc(CN2CCc3c(ncnc3NCC34CC5CC(CC(C5)C3)C4)C2)cc(OC)c1 [Compound 244]
> 75%	Clc1ccc(CN2CCc3c(ncnc3NCC34CC5CC(CC(C5)C3)C4)C2)cn1 [Compound 245]
> 75%	Fc1cc(Cl)ccc1CN1CCc2c(ncnc2NCC23CC4CC(CC(C4)C2)C3)C1 [Compound 246]
25 to 50%	CC12CC3(C)CC(C)(C1)CC(CNc1ncnc4c1CCN(Cc1ccccc1)C4)(C2)C3 [Compound 247]
